Measured values reported in ChEMBL document CHEMBL4118254, “1,2-Diphenoxiethane salts as potent antiplasmodial agents” (Bioorg Med Chem Lett, 2018).

Legend:
Choline kinase = molecular target: T1, Choline kinase (Plasmodium falciparum (isolate 3D7), UniProt Q8IM71); experiment: Inhibition of Plasmodium falciparum 3D7 choline kinase expressed in Escherichia coli BL21(DE3) assessed as reduction in phosphocholine formation
T1 sequence (Q8IM71 whole entry): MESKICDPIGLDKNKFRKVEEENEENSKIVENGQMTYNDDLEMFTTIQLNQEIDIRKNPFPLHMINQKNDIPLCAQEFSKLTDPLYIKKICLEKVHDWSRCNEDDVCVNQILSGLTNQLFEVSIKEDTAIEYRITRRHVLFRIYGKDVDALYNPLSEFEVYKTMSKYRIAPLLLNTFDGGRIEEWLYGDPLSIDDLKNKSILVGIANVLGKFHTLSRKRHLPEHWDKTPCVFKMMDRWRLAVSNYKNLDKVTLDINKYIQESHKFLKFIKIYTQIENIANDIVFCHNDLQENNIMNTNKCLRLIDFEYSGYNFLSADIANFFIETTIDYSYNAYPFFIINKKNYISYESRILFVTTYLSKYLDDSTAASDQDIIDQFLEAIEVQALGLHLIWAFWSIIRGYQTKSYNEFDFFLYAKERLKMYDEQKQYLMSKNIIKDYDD

Plasmodium falciparum [1] = experiment: Antiplasmodial activity against Plasmodium falciparum Dd2 infected in human erythrocytes after 48 hrs by picogreen-microfluorimetric assay; assay type: functional, organism-based; settings: Dd2, 48 h
Choline kinase alpha = Choline kinase alpha (Homo sapiens, UniProt P35790); experiment: Inhibition of human choline kinase alpha1 using [methyl-14C]choline as substrate assessed as reduction in rate of incorporation of 14C from [methyl-14C]choline into phosphocholine preincubated for 5 mins followed by substrate addition measured after 10 mins by scintillation counting
Plasmodium falciparum [2] = experiment: Antiplasmodial activity against Plasmodium falciparum 3D7 infected in human erythrocytes after 72 hrs by SYBR green 1-based fluorimetric assay; assay type: functional, organism-based; settings: 3D7, 72 h
[3] = Inhibition of Plasmodium falciparum choline kinase using [methyl-14C]choline as substrate assessed as reduction in rate of incorporation of 14C from [methyl-14C]choline into phosphocholine preincubated for 5 mins followed by substrate addition measured after 10 mins by liquid scintillation counter
[4] = Inhibition of Plasmodium falciparum choline kinase using [1-14C]ethanolamine as substrate assessed as reduction in rate of incorporation of […] preincubated for 5 mins followed by substrate addition measured after 10 mins by liquid scintillation counter

Choline kinase alpha, sequence (P35790 whole entry): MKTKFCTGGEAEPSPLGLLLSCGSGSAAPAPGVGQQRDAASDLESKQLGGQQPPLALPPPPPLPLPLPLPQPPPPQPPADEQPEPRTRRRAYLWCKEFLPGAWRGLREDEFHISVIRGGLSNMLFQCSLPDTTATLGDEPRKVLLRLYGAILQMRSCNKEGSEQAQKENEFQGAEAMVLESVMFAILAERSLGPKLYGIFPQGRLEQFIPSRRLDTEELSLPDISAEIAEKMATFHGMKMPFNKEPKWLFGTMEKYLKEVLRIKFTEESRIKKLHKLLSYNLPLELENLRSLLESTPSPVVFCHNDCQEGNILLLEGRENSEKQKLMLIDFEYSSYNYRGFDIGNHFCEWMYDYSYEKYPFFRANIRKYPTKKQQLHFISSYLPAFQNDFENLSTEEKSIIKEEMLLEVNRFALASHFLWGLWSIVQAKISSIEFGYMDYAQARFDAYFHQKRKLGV

Compound	IC50 (Plasmodium falciparum [2])	IC50 (Choline kinase)	IC50 (Plasmodium falciparum [1])	IC50 (Choline kinase alpha)	IC50 [3]	IC50 ([4]; read-out: IC50)	IC50 [4]
CN(C)c1cc[n+](Cc2ccc(CCCCc3ccc(C[n+]4ccc(N(C)C)cc4)cc3)cc2)cc1	3.5 nM	106000 nM	3.5 nM	780 nM	106000 nM		
CN(C)c1cc[n+](Cc2ccc(-c3ccc(C[n+]4ccc(N5CCCC5)cc4)cc3)cc2)cc1					276000 nM	12000 nM	
CN(C)c1cc[n+](Cc2ccc(CCCCc3ccc(C[n+]4ccc(N5CCCC5)cc4)cc3)cc2)cc1	3 nM				103000 nM	6000 nM	
OC1C[N+]2(Cc3ccc(OCCOc4ccc(C[N+]56CCC(CC5)C(O)C6)cc4)cc3)CCC1CC2 (stereo not given)	1690 nM						
[Br-].[Br-].c1cc(OCCOc2ccc(C[n+]3ccc(N4CCCC4)cc3)cc2)ccc1C[n+]1ccc(N2CCCC2)cc1	16 nM				50000 nM		Not Active
c1cc(OCCOc2ccc(C[N+]34CCC(CC3)CC4)cc2)ccc1C[N+]12CCC(CC1)CC2	177 nM						
Clc1ccc2c(N3CCCC3)cc[n+](Cc3ccc(OCCOc4ccc(C[n+]5ccc(N6CCCC6)c6ccc(Cl)cc65)cc4)cc3)c2c1	59 nM				14100 nM		
CN(C)c1cc[n+](Cc2ccc(OCCOc3ccc(C[n+]4ccc(N(C)C)cc4)cc3)cc2)cc1.[Br-].[Br-]	16 nM				≥ 100000 nM		Not Active
C[N+]1(C)CCOC(O)(c2ccc(-c3ccc(C4(O)C[N+](C)(C)CCO4)cc3)cc2)C1 (stereo not given) [HEMICHOLINIUM-3]	> 50000 nM	250000 nM	> 50000 nM		250000 nM		
CN(c1ccc(Cl)cc1)c1cc[n+](Cc2ccc(-c3ccc(C[n+]4ccc(N(C)c5ccc(Cl)cc5)c5ccccc54)cc3)cc2)c2ccccc12 [RSM-932A]	26.5 nM	1750 nM	26.5 nM		1750 nM		

Further lines, with some results ahead:

IC50 (Plasmodium falciparum [2])	Compound	IC50 (Choline kinase)	IC50 (Plasmodium falciparum [1])	IC50 (Choline kinase alpha)	IC50 [3]	IC50 ([4]; read-out: IC50)	IC50 [4]
142 nM	c1ccc2c(c1)c(N1CCCCCC1)cc[n+]2Cc1ccc(OCCOc2ccc(C[n+]3ccc(N4CCCCCC4)c4ccccc43)cc2)cc1				2360 nM	> 15000 nM	
177 nM	CN(c1ccccc1)c1cc[n+](Cc2ccc(OCCOc3ccc(C[n+]4ccc(N(C)c5ccccc5)c5ccc(Cl)cc54)cc3)cc2)c2cc(Cl)ccc12						
162 nM	CN(c1ccccc1)c1cc[n+](Cc2ccc(OCCOc3ccc(C[n+]4ccc(N(C)c5ccccc5)c5ccccc54)cc3)cc2)c2ccccc12						
369 nM	CN(c1ccc(Cl)cc1)c1cc[n+](Cc2ccc(OCCOc3ccc(C[n+]4ccc(N(C)c5ccc(Cl)cc5)c5ccc(Cl)cc54)cc3)cc2)c2cc(Cl)ccc12				6470 nM		
149 nM	CN(c1ccc(Cl)cc1)c1cc[n+](Cc2ccc(OCCOc3ccc(C[n+]4ccc(N(C)c5ccc(Cl)cc5)c5ccccc54)cc3)cc2)c2ccccc12				2520 nM		
35 nM	Clc1ccc2c(N3CCCCCC3)cc[n+](Cc3ccc(OCCOc4ccc(C[n+]5ccc(N6CCCCCC6)c6ccc(Cl)cc65)cc4)cc3)c2c1				10900 nM	> 50000 nM	
